Experimental data taken from article PMC9266449, “Dried Blood Spots as Matrix for Evaluation of Valproate Levels and the Immediate and Delayed Metabolomic Changes Induced by Single Valproate Dose Treatment” (International Journal of Molecular Sciences, 2022).
Read-outs that look alike come from different tables or passages of the source.

Experiments:
[1] = source not stated; cited from earlier work
[2] = design: method as in PMID 3146521; settings: female rats, 200 mg/kg oral gavage, cited from earlier work
[3] = design: method as in PMID 390116; settings: mean ± standard error; cited from earlier work
[4] = design: method as in PMID 390116; settings: whole blood concentrations, cited from earlier work
[5] = rats; cited from earlier work
[6] = human; cited from earlier work
[7] = Pharmacokinetics of VPA from DBS drug levels after intravenous bolus in rats; assay type: in vivo; settings: Sprague-Dawley, rat, dried blood spots (whole blood), iv bolus 200 mg/kg, mean ± SD; for AUC(0-t): read-out: Area under the curve (AUC0–8 h); for clearance: read-out: Clearance (CL) (converted); for half-life: read-out: HL Lambda Z (terminal elimination half-life) (converted); for MRT: read-out: Mean residence time (MRT); for Vd: read-out: Volume of distribution (Vd)
Protocol: Sprague-Dawley rats (7–8 weeks old, males: 10, females: 10) were obtained from the Comparative Medicine Center (CMC) of NUS. The rats were housed in a specific pathogen free animal facility (24 °C, 60% relative humidity) at CMC and kept on a 12-h light/dark cycle with free access to food and water. Twenty-four hours before the study, a polyethylene tubing (I.D. 0.58 mm, O.D. 0.965 mm, Becton Dickinson, Sparks, MD 21152, USA) was implanted into the right jugular vein under isoflurane anesthesia. This catheter was used for drug injection and blood sampling.
At 9 am on the study day, five rats from each gender were administered VPA intravenously at a dose of 200 mg/kg body weight (treatment group). The rest of the 5 rats from each gender were given sodium chloride 0.9% intravenously, as the placebo control group. Prior to VPA administration, blood samples (approximately 300 µL) from each of the 10 male rats and 10 female rats were collected and kept in an ice box until they were processed. After VPA/saline injection, blood samples were collected at 0.5, 2.5, 5, 8 and 24 h, respectively, from the 20 rats. The 6 time points were anticipated to capture the metabolite fluctuations in a day. Within 30 min of collection, the blood samples were spotted in duplicates of 25 µL onto Guthrie paper (UK Neonatal Screening Laboratories Network, Whatman 903®) and were left to dry in the fume hood for at least 3 h, the minimum time required for complete dryness. After drying, the DBS were punched, and the cores (6 mm) obtained were placed inside the respective Eppendorf tubes. All the acquired DBS were stored at −80 °C until processing for analysis. One DBS was used for metabolomic analysis and the other one was used for drug level quantification.
Extraction of VPA from DBS was carried out using 480 µL of acetonitrile and 20 µL of 1 N NaOH, vortexed for 1 min and followed by sonication for 5 min. The resulting extracts were centrifuged at 3500× g, 22 °C for 15 min [29, 30]. An amount of 400 µL of the supernatant were transferred into 15 mL Kimble centrifuge glass tubes for drying under a stream of nitrogen at 30 °C, followed by the removal of water using toluene and drying under nitrogen again. The dried sample was then derivatized using 50 µL MSTFA with 1% TMCS with incubation at 70 °C for an optimum period of 50 min. […] After vortexing for 1 min, 80 µL of the final volume was transferred into a 200 µL conical base inert glass insert, placed inside a 2 mL amber autosampler glass vial.
An assay for quantification of VPA concentrations in DBS was optimized in accordance to the International Conference of Harmonization (ICH) guideline. The settings were as follows: an injection temperature of 200 °C, ion source temperature of 220 °C, split ratio of 1:5, the starting temperature set at 90 °C for 0.2 min, with initial gradient ramp at 10 °C/min to 120 °C and held for 0.5 min. The temperature was then increased at 65 °C/min up to 285 °C and held for another 0.5 min. The temperature ramp was then reduced to 10 °C/min to reach a temperature of 291 °C and held for 0.2 min, before continuing at 60 °C/min to reach a final temperature of 300 °C, with a hold at 300 °C for 5 min. Selective ion monitoring (SIM) mode was applied for identifier ions with an m/z value of 201 and qualifying ions with m/z values of 145 and 129. A calibration curve was established with 6 concentrations, ranging from 0.5 µg/mL to 5 mg/mL.
Concentration-time profiles of VPA after intravenous bolus injection were fitted into a non-compartmental model (WinNonlin Professional, Version 5.1, Pharsight Corporation, Mountain View, CA, USA). The pharmacokinetic parameters obtained included the area under the DBS concentration versus time curve (AUC0–8 h), apparent volume of distribution (Vd) clearance (Cl), terminal elimination half-life (HL Lambda Z) and mean residence time (MRT) of VPA.

[8] = both sexes, all rats (male and female pooled)

CCCCCCCCCCCCCCCC(=O)O [Palmitic acid]
LogP [1]: 6.26

C[C@H](N)C(=O)O [Alanine]
LogP [1]: -0.68

CC(C)CCC[C@@H](C)[C@H]1CC[C@H]2[C@@H]3CC=C4C[C@@H](O)CC[C@]4(C)[C@H]3CC[C@]12C [Cholesterol]
LogP [1]: 7.11

CCCC(CCC)C(=O)O [VPA, 2-propyl-pentanoic acid]
AUC ([2]; plasma): 1019 ± 769 µg·h/mL | Maximum concentration (Cmax) at 0.5 h ([2]; plasma): 341 ± 18 µg/mL | t1/2 (plasma half-life) [2]: 1.0 ± 0.2 h | Plasma/whole blood concentrations ratio [3]: 1.46 ± 0.03 | t1/2 ([4]; male rats, 150 mg/kg): 0.68 h | CL ([4]; rats dosed at 15 mg/kg): 0.525 ± 0.065 L/h | Vd ([4]; rats dosed at 15 mg/kg): 0.155 ± 0.025 L | Protein bound [5]: 64% | Protein bound [6]: 90% | AUC(0-t) ([7]; female rats): 363 ± 18.7 µg·h/mL | clearance ([7]; female rats): 2 mL/min | half-life ([7]; female rats): 2.01 ± 0.24 h | MRT ([7]; female rats): 1.46 ± 0.4 h | Vd ([7]; female rats): 0.21 ± 0.01 L | AUC(0-t) ([7]; male rats): 126 ± 39.2 µg·h/mL | clearance ([7]; male rats): 8.5 mL/min | half-life ([7]; male rats): 1.71 ± 0.18 h | MRT ([7]; male rats): 1.14 ± 0.28 h | Vd ([7]; male rats): 0.82 ± 0.23 L | AUC(0-t) [7, 8]: 245 ± 133 µg·h/mL | clearance [7, 8]: 5.33 mL/min | half-life [7, 8]: 1.86 ± 0.26 h | MRT [7, 8]: 1.3 ± 0.36 h | Vd [7, 8]: 0.51 ± 0.36 L
